According to patent US7253286B2, “Nitrogen-containing aromatic derivatives” (Eisai Co., Ltd, priority 2000, dated 2007):
Structures can show the parent of a compound that is named as a salt.

Tested on: Human Umbilical Vein Endothelial Cells (HUVECs)
Assay: Inhibition against sandwich tube formation by vascular endothelial cells in response to stimulation by VEGF
Assay type: cell-based
Conditions: HUVEC in collagen gel sandwich, stimulation by VEGF (25 ng/ml VEGF and 10 ng/ml EGF), 4th day, total tube length, read-out: IC50 (concentration required for 50% inhibition of tube formation)
Experimental: Inhibition Against Sandwich Tube Formation by Vascular Endothelial Cells in Response to Stimulation by Angiogenic Factor
Human Umbilical Vein Endothelial Cells (HUVECS) were isolated by the same method as in Pharmacological Test Example 1, and were cultured in a 5% CO2 incubator (37° C.) using EGM-2 medium (purchased from Clonetics Corp.) until the cells reached confluency.
An ice-cooled mixture of collagen: 5× RPMI 1640: reconstitution buffer (all purchased from Nitta Gelatin, Inc.) at 7:2:1 was dispensed at 0.4 ml into each well of a 24-well plate, and then stationed for 40 minutes in a 5% CO2 incubator (37° C.) for gelling. The HUVECs were recovered using trypsin-EDTA and then suspended in human endothelial serum free medium (SFM, purchased from GIBCO BRL) containing added angiogenic factors [20 ng/ml FGF2 (purchased from GIBCO BRL) and 10 ng/ml EGF (purchased from GIBCO BRL), or 25 ng/ml VEGF (purchased from Wako Pure Chemical Industries Co., Ltd.) and 10 ng/ml EGF, or 30 ng/ml HGF (purchased from R&D Co.) and 10 ng/ml EGF], and the cell suspension was added at 0.4 ml to each well (with the cell counts differing slightly according to the HUVEC lot), and cultured overnight in a 5% CO2 incubator (37° C.). On the following day, the medium on the upper layer was aspirated off, and then 0.4 ml of an ice-cooled mixture of collagen: 5× RPMI 1640: reconstitution buffer (all purchased from Nitta Gelatin, Inc.) at 7:2:1 was superposed into each well prior to stationing for 4 hours in a 5% CO2 incubator (37° C.) for gelling. After adding 1.5 ml of an SFM solution containing each of the aforementioned angiogenic factors and a diluted test substance onto the upper layer, culturing was performed in a 5% CO2 incubator (37° C.). Upon aspirating off the culture supernatant in each well on the 4th day after addition of the test substance, 0.4 ml of a 3.3 mg/ml MTT solution dissolved in PBS (purchased from Sigma Corp.) was added to each well and culturing was performed for approximately 2 hours in a 5% CO2 incubator (37° C.). The tubes formed in the collagen gel of each well were stained by the MTT, the tube images were loaded into a computer (Macintosh), and the total length of the tubes was determined by image analysis software “MacScope” (purchased from Mitani Corp.). The ratio of the total length of the tubes formed in the well containing the test substance with respect to the total length of the tubes formed in the well containing no test substance was expressed as a percentage, and the concentration of each test substance required for 50% inhibition of tube formation (IC50) was determined from the ratio value.

SMILES	IC50
CCCNC(=O)c1cc2c(Oc3ccc(NC(=O)NC4CC4)c(Cl)c3)ccnc2cc1OC [Example 444, N6-Propyl-4-(3-chloro-4-(((cyclopropylamino)carbonyl)amino)phenoxy)-7-methoxy-6-quinolinecarboxamide]	5.5 nM
O=C(Nc1cc(Oc2ccc3c(ccn3C(=O)Nc3ccccc3)c2)ccn1)C1CCN(CC2CC2)CC1 [Example 198, N1-Phenyl-5-{[2-({[(1-cyclopropylmethyl)-4-piperidyl]carbonyl}amino)-4-pyridyl]oxy}-1H-1-indolecarboxamide]	1.5 nM
CCN(CC)CCCOc1cc2nccc(Oc3ccc4c(ccn4C(=O)Nc4nccs4)c3)c2cc1C#N [Example 300, 5-[6-Cyano-7-(3 diethylaminopropoxy)quinolin-4-yloxy]indole-1-carboxylic acid (thiazol-2-yl)amide]	7.5 nM
COC(=O)c1cc2c(Oc3ccc(N(C)C(=O)Nc4ccc(F)cc4)cc3)ccnc2cc1OC [Example 433, Methyl 4-(4-(((4-fluoroanilino)carbonyl)(methyl)amino)phenoxy)-7-methoxy-6-quinoline carboxylate]	5.6 nM
COc1cc2nccc(Oc3ccc(NC(=O)NC4CC4)c(Cl)c3)c2cc1C(=O)NCC1CC1 [Example 446, N6-Cyclopropylmethyl-4-(3-chloro-4-(((cyclopropylamino)carbonyl)amino)phenoxy)-7-methoxy-6-quinolinecarboxamide]	4 nM
CN1CCCC(COc2cc3nccc(Oc4ccc(NC(=O)Nc5ccc(F)cc5)c(F)c4)c3cc2C#N)C1 (stereo not shown) [Example 127, N-(4-(6-Cyano-7-((1-methylpiperidin-3-yl)methoxy)-4-quinolyl)oxy-2-fluorophenyl)-N′-(4-fluorophenyl)urea]	7.5 nM
CONC(=O)c1cc2c(Oc3ccc4c(ccn4C(=O)NC4CC4)c3)ccnc2cc1OC [Example 521, 6-Methoxycarbamoyl-7-methoxy-4-((1-cyclopropylcarbamoyl)indol-5-yloxy)quinoline]	0.5 nM
CCN(CC)CCCOc1cc2nccc(Oc3ccc(NC(=O)NC4CC4)c(Cl)c3)c2cc1C#N [Example 419, N-(2-Chloro-4-((6-cyano-7-(3-(diethylamino)propoxy)-4-quinolyl)oxy)phenyl)-N′-cyclopropylurea]	10 nM
COc1cc(Nc2cc(Oc3ccc(NC(=O)Nc4ccccc4)cc3)ncn2)cc(OC)c1OC [Example 578, N-Phenyl-N′-(4-(6-(3,4,5-trimethoxyphenylamino)pyrimidin-4-yloxy)phenyl)urea hydrochloride]	13 nM
NC(=O)c1cc2c(Oc3ccc(NC(=O)NC4CC4)c(Cl)c3)ccnc2cc1OCCO [Example 386, 4-(3-Chloro-4-(cyclopropylaminocarbonyl)aminophenoxy)-7-(2-hydroxyethoxy)-6-quinolinecarboxamide]	10 nM
CN1CCCC(COc2cc3nccc(Oc4ccc(NC(=O)Nc5nccs5)c(F)c4)c3cc2C#N)C1 (stereo not shown) [Example 505, N-{4-[6-Cyano-7-(1-methylpiperidin-3-ylmethoxy)quinolin-4-yloxy]-2-fluorophenyl}-N′-(2-thiazolyl)urea]	8.9 nM
CN1CCC(COc2cc3nccc(Oc4ccc5c(ccn5C(=O)Nc5nccs5)c4)c3cc2C#N)CC1 [Example 308]	5.2 nM
COC(=O)CCCOc1cc2nccc(Oc3ccc(NC(=O)Nc4ccc(OC)cc4)cc3)c2cc1C#N [Example 70, N-(4-(6-Cyano-7-(3-methoxycarbonylpropoxy)-4-quinolyl)oxyphenyl)-N′-(4-methoxyphenyl)urea]	58 nM
CCNC(=O)n1ccc2cc(Oc3ccnc4cc(OC)c(C(=O)NOC)cc34)ccc21 [Example 520, 6-Methoxycarbamoyl-7-methoxy-4-((1-ethylcarbamoyl)indol-5-yloxy)quinoline]	1.5 nM
N#Cc1cc2c(Oc3ccc(NC(=O)Nc4ccc(F)cc4)c(F)c3)ccnc2cc1OCCCC(=O)NC1CC1 [Example 137, N-(4-(6-Cyano-7-(3-((cyclopropylamino)carbonyl)propoxy)-4-quinolyl)oxy-2-fluorophenyl)-N′-(4-fluorophenyl)urea]	10 nM
CS(=O)(=O)CCCOc1cc2nccc(Oc3ccc(NC(=O)Nc4ccc(F)cc4)cc3)c2cc1C#N [Example 108, N-(4-(6-Cyano-7-(3-(methylsulfonyl)propoxy)-4-quinolyloxy)phenyl)-N′-(4-fluorophenyl)urea]	4.9 nM

SMILES	IC50
N#Cc1cc2c(Oc3ccc(NC(=O)Nc4ccc(F)cc4)cc3)ccnc2cc1OC[C@H](O)CN1CCCC1 [Example 454, N-(4-((6-Cyano-7-(((2R)-2-hydroxy-3-(1-pyrrolidino)propyl)oxy)-4-quinolyl)oxy)phenyl)-N′-(4-fluorophenyl)urea]	3.7 nM
O=C(Nc1cc(Oc2ccc3c(ccn3C(=O)NCCF)c2)ccn1)C1CC1 [Example 215, N1-(2-Fluoroethyl)-5-({2-[(cyclopropylcarbonyl)amino]-4-pyridyl}oxy)-1H-1-indolecarboxyamide]	22 nM
CCN(CC)CCCNC(=O)n1ccc2cc(Oc3ccnc4cc(OC)c(C(N)=O)cc34)ccc21 [Example 327, 6-Carbamoyl-4-[1-(3-diethylaminopropylcarbamoyl)1H-indol-5-yloxy]-7-methoxyquinoline]	56 nM
COc1cc2nccc(Oc3ccc(NC(=O)Nc4nccs4)nc3)c2cc1OC [Example 224, N-(5-(6,7-Dimethoxyquinolin-4-yloxy)pyridin-2-yl)-N′-(thiazol-2-yl)urea]	26 nM
N#Cc1cc2c(Oc3ccc4c(ccn4C(=O)Nc4nccs4)c3)ccnc2cc1OCCCN1CCCC1 [Example 289, 5-[6-Cyano-7-(3-(pyrrolidin-1-yl)propoxy)quinolin-4-yloxy]indole-1-carboxylic acid (thiazol-2-yl)amide]	4.6 nM
O=C(Nc1ccc(Oc2ncnc3[nH]c(-c4ccc(OCCCN5CCCC5)cc4)cc23)cc1Cl)NC1CC1 [Example 155]	1.4 nM
CCN(CC)CCCOc1cc2nccc(Oc3ccc4[nH]ccc4c3)c2cc1C#N [Example 296, 7-(3-Diethylaminopropoxy)-4-(1H-indol-5-yloxy)quinoline-6-carbonitrile]	34 nM
COc1cc2nccc(Oc3ccc4c(ccn4C(=O)NC(C)C)c3)c2cc1C(N)=O [Example 320, 6-Carbamoyl-7-methoxy-4-[1-(1-methyl)ethylcarbamoyl-1H-indol-5-yloxy]quinoline]	2.5 nM
O=C(C1CC1)N(C(=O)C1CC1)c1cc(Oc2ccc3c(ccn3C(=O)NC3CC3)c2)ccn1 [Example 211, N1-Cyclopropyl-5-({2-[di(cyclopropylcarbonyl)amino]-4-pyridyl}oxy)-1H-1-indolecarboxamide]	0.3 nM
COc1cc2nccc(Oc3ccc(NC(=O)NC4CC4)c(Cl)c3)c2cc1C(=O)Nc1cccnc1 [Example 408, N6-(3-Pyridyl)-4-(3-chloro-4-(((cyclopropylamino)carbonyl)amino)phenoxy)-7-methoxy-6-quinolinecarboxamide]	39 nM
COc1cc2nccc(Oc3ccc(NC(=O)Nc4ccccc4)cn3)c2cc1OC [Example 129, N-6-((6,7-Dimethoxy-4-quinolyl)oxy)-3-pyridyl-N′-phenylurea]	40 nM
CCNC(=O)n1ccc2cc(Oc3ccnc4cc(OCC5CCN(C)CC5)c(C#N)cc34)ccc21 [Example 304, 6-Cyano-4-(1-ethylcarbamoylindol-5-yloxy)-7-[(1-methylpiperidin-4-yl)methyloxy]quinoline]	0.3 nM
COCCOc1cc2nccc(Oc3ccc(NC(=O)Nc4nccs4)cc3)c2cc1C#N [Example 12, N-(4-(6-cyano-7-(2-methoxyethoxy)-4-quinolyl)oxyphenyl)-N′-(1,3-thiazol-2-yl)urea]	44 nM
COc1cc2nccc(Oc3ccc(NC(=O)NC4CC4)c(Cl)c3)c2cc1C(=O)NC[C@H]1CCCO1 [Example 450, N6-((2R)Tetrahydro-2-furanylmethyl)-4-(3-chloro-4-(((cyclopropylamino)carbonyl)amino)phenoxy)-7-methoxy-6-quinolinecarboxamide]	4.5 nM
CCNC(=O)n1ccc2cc(Oc3ccnc4cc(OCCCN5CCCC5)c(C#N)cc34)ccc21 [Example 299, 5-[6-Cyano-7-(3-(pyrrolidin-1-yl)propoxy)quinolin-4-yloxy]indole-1-carboxylic acid ethylamide]	1 nM
